Measurements taken from ChEMBL document CHEMBL1201862, “PubChem BioAssay data set” (2004).
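Values below derive from 48-hour exposures of cells grown in 96-well plates, with endpoints linearly interpolated between the two concentrations bracketing the appropriate inhibition level. Here, GI50 denotes the concentration required for 50% inhibition of growth.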 Calls of active or inactive are those of the source. Rule as the data show it: active = GI50 up to about 1.1 µM and inactive = higher.

What was measured:
Assay in all cases: NCI-60 cell line screen, 48 h
[1] = system: SK-MEL-5
[2] = system: SK-MEL-28
[3] = system: SF-539
[4] = system: HCC 2998
[5] = system: UACC-62
[6] = system: RXF 393
[7] = system: T47D
[8] = system: SR
[9] = system: BT-549
[10] = system: NCI-H23
[11] = system: IGROV-1
[12] = system: ACHN
[13] = system: SF-268
[14] = system: A549
[15] = system: K562
[16] = system: EKVX
[17] = system: PC-3
[18] = system: U-251
[19] = system: A498
[20] = system: OVCAR-5
[21] = system: UO-31
[22] = system: NCI/ADR-RES
[23] = system: SNB-19
[24] = system: LOX IMVI
[25] = system: MDA-N
[26] = system: CAKI-1
[27] = system: KM12
[28] = system: MDA-MB-435
[29] = system: MCF7
[30] = system: DU-145
[31] = system: SK-OV-3
[32] = system: M14
[33] = system: SNB-75
[34] = system: OVCAR-3
[35] = system: HT-29
[36] = system: SW-620
[37] = system: HCT-15
[38] = system: MDA-MB-231
[39] = system: COLO 205
[40] = system: 786-0
[41] = system: HCT-116
[42] = system: UACC-257
[43] = system: SN12C
[44] = system: SF-295
[45] = system: NCI-H460
[46] = system: HOP-92
[47] = system: Malme-3M
[48] = system: TK-10
[49] = system: OVCAR-4
[50] = system: RPMI-8226
[51] = system: SK-MEL-2
[52] = system: NCI-H226
[53] = system: MOLT-4
[54] = system: OVCAR-8
[55] = system: NCI-H522
[56] = system: HOP-62
[57] = system: Hs-578T
[58] = system: CCRF-CEM
[59] = system: HL-60

Measured: GI50

C(=C\c1ccccc1)/COc1ccccc1C(N1CCOCC1)n1nc2ccccc2n1 (stereo not drawn)
1.82 µM: [37]
inactive: [1] 3.33 µM | [2] 10.7 µM | [3] 2.59 µM | [4] 17.5 µM | [5] 3 µM | [6] 3.94 µM | [7] 10.7 µM | [9] 7.55 µM | [10] 5.35 µM | [11] 7.98 µM | [12] 7.98 µM | [13] 5.71 µM | [14] 41 µM | [15] 1.19 µM | [16] 21.2 µM | [17] 2.59 µM | [18] 3.08 µM | [19] 38.1 µM | [20] 14.1 µM | [21] 9.86 µM | [22] 3.69 µM | [23] 19.2 µM | [24] 2.9 µM | [26] 15.2 µM | [27] 5.26 µM | [29] 1.4 µM | [30] 5.85 µM | [31] 32.4 µM | [32] 2.58 µM | [33] 4.8 µM | [34] 2.18 µM | [35] 3 µM | [36] 4.28 µM | [38] 4.73 µM | [39] 19.9 µM | [40] 3.29 µM | [41] 5.31 µM | [42] 5.51 µM | [43] 5.6 µM | [44] 8.95 µM | [45] 15.4 µM | [46] 5.15 µM | [47] 2.99 µM | [48] 6.98 µM | [49] 12.2 µM | [50] 2.92 µM | [51] 7.23 µM | [52] 7.28 µM | [53] 2.3 µM | [54] 3.5 µM | [55] 22 µM | [56] 4.71 µM | [57] 7.24 µM | [58] 1.88 µM
active: [8] 1.07 µM | [25] 0.621 µM | [28] 0.365 µM | [59] 0.352 µM

CCCCCCCCCCCCCCCCOP(=O)(O)OCC(NC(C)=O)C(=O)O (stereo not drawn)
inactive: [1] > 100 µM | [2] > 100 µM | [3] 32.4 µM | [4] > 100 µM | [6] 21.7 µM | [7] > 100 µM | [8] 73.8 µM | [9] 18.8 µM | [10] 33 µM | [11] 24.3 µM | [12] > 100 µM | [13] 31 µM | [14] > 100 µM | [15] > 100 µM | [16] > 100 µM | [17] 18 µM | [18] 20 µM | [19] 32.4 µM | [20] > 100 µM | [21] > 100 µM | [22] > 100 µM | [23] 18.7 µM | [24] > 100 µM | [25] 54.2 µM | [26] 57 µM | [28] 35.4 µM | [29] > 100 µM | [30] > 100 µM | [31] > 100 µM | [32] > 100 µM | [33] 20 µM | [34] 98.2 µM | [35] > 100 µM | [36] > 100 µM | [38] 22.9 µM | [39] > 100 µM | [40] 73.3 µM | [41] 36.4 µM | [42] 54.1 µM | [43] 42.6 µM | [44] 20.4 µM | [45] 39.1 µM | [46] 55.3 µM | [47] > 100 µM | [48] 23.7 µM | [49] 25.9 µM | [50] 41.7 µM | [51] > 100 µM | [52] 76 µM | [53] 24.2 µM | [54] > 100 µM | [55] 5.64 µM | [56] 19.2 µM | [57] 27.9 µM | [59] 43.8 µM
18.2 µM: [37]

CCOC(=O)NNC1(SC)NC(=O)c2c(cc(Cl)oc2=O)O1 (stereo not drawn)
2.17 µM: [37]
inactive: [1] 5.16 µM | [2] 3.08 µM | [3] 1.79 µM | [4] 4.29 µM | [5] 5.97 µM | [6] 3.14 µM | [7] 6.85 µM | [8] 2.36 µM | [9] 4.37 µM | [10] 3.61 µM | [11] 3.87 µM | [12] 1.87 µM | [13] 3.49 µM | [14] 8.11 µM | [15] 1.62 µM | [16] 6.85 µM | [17] 3.4 µM | [18] 10.8 µM | [19] 14.2 µM | [20] 11.5 µM | [21] 1.72 µM | [22] 6.84 µM | [23] 11.5 µM | [24] 2.06 µM | [25] 2.58 µM | [26] 2.72 µM | [27] 10.4 µM | [28] 4.83 µM | [29] 1.91 µM | [30] 4.17 µM | [31] 8.02 µM | [32] 3.37 µM | [33] 9.84 µM | [34] 2.84 µM | [35] 2.19 µM | [36] 3.31 µM | [38] 8.41 µM | [39] 6.93 µM | [40] 1.92 µM | [41] 1.46 µM | [42] 7.26 µM | [43] 3.21 µM | [44] 12.4 µM | [45] 8 µM | [46] 1.96 µM | [48] 3.55 µM | [49] 6.17 µM | [50] 2.84 µM | [51] 7.73 µM | [52] 20.9 µM | [53] 2.67 µM | [54] 2.07 µM | [55] 2.12 µM | [56] 11.3 µM | [57] 5.64 µM | [58] 2.34 µM | [59] 1.9 µM
